The source of these data is US5723114A, “Penetration enhancing compositions and methods of their use” (Cellegy Pharmaceuticals Inc., priority 1996, dated 1998).

For series [1], the system named is skin barrier (stratum corneum, treated flank of hairless mouse). Description: TEWL (water permeability) after oleic acid treatment and application of drug delivery compound. It counts as in vivo. The settings on record: for TEWL (T = 4 hours): vehicle 266±22; for water permeability: words. How it is done:
(§1) A female hairless mouse, aged 8 weeks, was treated with oleic acid. After oleic acid treatment, epicholesterol, which substitutes for cholesterol, or transvaccenic acid or stearyl amine, both of which substitute for free fatty acid, was applied to the animal.
TEWL (trans-epidermal water loss) was measured before and after treatment at convenient time intervals when the animal was alert. An Evaperimeter (ServoMed) was used.
(§2) First, TEWL of the left (LHS) and right (RHS) dorsal sides was measured. Then, the animal was anesthetized by 0.25 ml chloral hydrate (CH) IP injection. At t=0, an aliquot of 30 μl oleic acid solution (5% in propylene glycol/ethanol 7:3 (v/v)) was applied directly to both sides of the animal (~1.5×3 cm) using a Hamilton syringe. Two hours after oleic acid treatment, the TEWL rates of both sides were measured, and the RHS was treated with 30 μl of epicholesterol alone and with transvaccenic acid or stearylamine (1.5% in propylene glycol/ethanol 7:3 (v/v)). TEWL was measured thereafter every 2 or 3 hours.
(§3) The mice were kept under anesthesia until the harvest of tissue samples and then sacrificed. At time zero, the tested drug delivery compound listed in Tables 2, 3 and 4 below was applied to the whole treated flank of each mouse. After four hours TEWL was measured again and two drug formulations,one containing lidocaine in a vehicle of a mixture of propylene glycol and ethanol and the other containing Leuteinizing Hormone Releasing Hormone (LHRH) in a vehicle of 60% ethanol, 20% propylene glycol and 20% water. Residual formulation was removed from the skin surface with cotton balls three times and the cotton balls were put into vial #1. Five tape-strippings were conducted at the treated skin sites, and each tape was put into an individual vial numbered 2-6. At the same time, blood was drawn and stored under refrigeration. Urine was collected from the mice during the two hour drug application period and placed into vial #8.

Series [2] can be described thus: Percutaneous lidocaine delivery (scintillation counting of plasma and body). The note with it: mouse, in vivo. Further details: species or system hairless mouse. How it is done: as §1, §2, §3
After an additional two hours, the treated skin was cut off, the subcutaneous fat was removed, and the whole skin was placed into vial #7 to which 1 ml of tissue solubilizer was added, and the mixture was allowed to digest overnight at 55° C. The corpse was digested in 100 ml of saponification mix at 55° C. overnight.
For analysis, 10 ml of Scintisafe (30% ) Scintillation media (Fisher Scientific, Fairlawn, N.J.) was added to vials 1-6, and 8. The blood samples were centrifuged, and an aliquot of 100-200 μl was placed into vial #9 and 10 ml of Scintisafe (30%) was added. Similar aliquots of the corpse digest were placed into vials #10 and #11. To vials #9, 10, and 11, 100 μl of 30% hydrogen peroxide was added to decolorize the contents for about two hours. Then […] of Scintisafe (30%) and 150 μl of acetic acid were added and the mixture was let stand overnight. All vials were subjected to scintillation counting as described above. The parameters for the vehicle are as follows: TEWL 266±22 (T=4 hours); plasma concentration 0.31±0.03%; total body concentration 13.13±0.83(% dose/ml plasma); N=14.

Series [3] has as its system skin barrier (flanks of hairless mice). Put plainly: TEWL topical studies: barrier recovery after acetone or tape stripping with topical proton-pump inhibitors. Type of series: in vivo. The settings on record: DCCD-treated skin immersed in an acidic buffer. Here is the method:
Proton-pump inhibitors: N,N'-dicyclohexylcarbodiimide (DCCD); 1-10 mM); N-ethyl maleimide (NEM; 1 mM); 7-chloro-4-nitrobenz-2-oxa-1,3-diazole (NBD Cl; 1 mM) and bafilomycin A1 (10 μM) were prepared in vehicle (i.e., 70% propylene glycol, 30% ethanol). Flanks of hairless mice were pre-treated for 30 minutes to 1 hour with drug or vehicle alone before breaking the barrier with acetone. TEWL readings were taken at various time points as described above, followed by additional treatments with drug or vehicle. The DCCD-override study included immersion of flanks in HEPES buffer at pH 5.5 or 7.4 after the pre-treatment with either drug or vehicle and after breaking the barrier with either acetone or by tape stripping.
Test results are shown in FIG. 7 (NEM, NBD-chloride, BAF).

[4] abbreviates: Table 2/Table 3, no hourly application, TRIS 50 mM, HEPES 20 mM.

SMILES strings stand for the structures. Structures can show the parent of a compound that is named as a salt.

For the molecule `O=S(=O)(O)CCN1CCN(CCO)CC1` [HEPES, (N-[2-Hydroxyethyl]piperazine-N'-[2-ethanesulfonic acid])], the “TEWL (T = 4 hours)” value in series [1] (Table 2/Table 3, hourly application, HEPES 20 mM, listed as HEPES (pH 5.5)) is 560 ± 125; in series [1] (Table 2/Table 3, hourly application, HEPES 20 mM, listed as HEPES (pH 7.4)), 460 ± 24; in series [1] (setting [4]), 360 ± 18. Further, the water permeability result in series [1] (alone, single application, pH 5.4) is listed as “approached statistical significance (p=0.05-0.10)”; in series [1] (hourly to maintain pH 5.5) it was “significant increases”; in series [1] (hourly to maintain pH 7.4), “increased water permeability was significant”. For the same molecule, the lidocaine delivery entry is “approached statistical significance (p=0.05-0.10)” in series [2] (pH 5.4), “significant increases” in series [2] (pH 5.5) and “only increased water permeability was significant” in series [2] (pH 7.4).
In the case of `NC(CO)(CO)CO` [TRIS, Tris(hydroxymethyl) aminomethyl maleate], the “TEWL (T = 4 hours)” value in series [1] (setting [4]) was determined as 583 ± 109. The water permeability entry in series [1] (alone, pH 5.5) was “significantly increased”. Moreover, the lidocaine delivery result in series [2] (pH 5.5) is “very significantly (p≤0.001) increased”.
For `CC(C)CCC[C@@H](C)[C@H]1CC[C@H]2[C@@H]3CC=C4C[C@H](O)CC[C@]4(C)[C@H]3CC[C@]12C` [epicholesterol], the “TEWL (T = 4 hours)” value in series [1] (Table 4, synthetic lipid analogs in propylene glycol/ethanol) was 397 ± 55. In addition, in series [2], the “Plasma Conc. (lidocaine)” value amounted to 0.24 ± 0.05 % dose/ml plasma, the “Total Body Conc. (lidocaine)” value was 11.40 ± 1.98% and the lidocaine delivery result is on record as “significantly increased”.
Consider `C(=NC1CCCCC1)=NC1CCCCC1` [DCCD, N,N'-dicyclohexylcarbodiimide], for which the “barrier recovery, override study” value in series [3] was “normalized (corrected) the rate of barrier recovery”.
